Data reported in patent publication US20220145335A1, “Bio-catalyzed Synthesis of Potent Anti-inflammatory Agents from Medroxyprogesterone Acetate” (priority 2022, published 2022).
Read-outs that look alike come from different tables or passages of the source.

How the values were obtained:
[1] = tested on: T-cells (peripheral blood mononuclear cells); assay: T-cell proliferation assay (PHA-stimulated PBMC, tritiated thymidine incorporation); format: cell-based, human; conditions: in vitro; for IC50: PHA-stimulated human PBMC, 72 h + 18 h thymidine pulse, read-out: IC50, T-cell proliferation inhibition; for T-cell proliferation inhibitory activity, result in words: compared to substrate (1) and standard prednisolone
Experimental: T-Cell Proliferation Assay The T-cell proliferation inhibitory activity of compounds 2-6 were evaluated by following the method of Nielsen et al. (1998). Peripheral blood mononuclear cells (PBMC) were isolated by Ficoll-Hypaque gradient centrifugation from the blood of healthy human volunteers. The concentration of the cell was adjusted to 2×10^6 cells/mL in RPMI-1640 media containing 5% FBS (Fetal bovine serum) and then 5 μg/mL phytohemagglutinin (PHA) was added into each well of a sterile 96-well plates. Different concentrations of test compounds (0.2, 1, 5, and 25 μg/mL) were then added, each in triplicate. Positive control wells contained cells and PHA, whereas the negative control contains cells alone. The plate was incubated in 5% CO2 at 37° C. for 72 hours and the cells were pulsed with 25 μL of tritiatedthymidine (0.5 μci/well), and the incubation was continued for 18 hours. Cells were harvested on a glass fiber filter, and the effect of the test compounds on proliferation was evaluated using a LS65000 liquid scintillation counter (Beckman Coulter, Fullerton, Calif., USA) quantitatively using a LS65000 liquid scintillation counter (Beckman Coulter, CA, USA). Counts per minute (CPM) were recorded, and the inhibiton of T-cell proliferation was calculated in comparison to control containing cells and PHA.

SMILES	IC50 [1] [µM]	melting point [°C]	IC50 ([1]; 90 h) [µM]	T-cell proliferation inhibitory activity, result in words [1]
CC(=O)O[C@]1(C(C)=O)CC[C@H]2[C@@H]3C[C@H](C)C4=CC(=O)CC[C@]4(C)[C@H]3CC[C@@]21C [Compound 1, Medroxyprogesterone acetate]	6.48 ± 5.18	–	–	–
CC(=O)O[C@]1(C(C)=O)CC[C@H]2[C@@H]3C[C@H](C)C4=CC(=O)CC[C@]4(C)[C@H]3C(=O)C[C@@]21C [Compound 2, 17α-Acetoxy-6α-methylpregn-4-ene-3,11,20-trione]	< 0.5	238 to 240	< 0.5	potent inhibitors
CC(=O)O[C@]1(C(C)=O)C[C@@H](O)[C@H]2[C@@H]3C[C@H](C)C4=CC(=O)CC[C@]4(C)[C@H]3C(=O)C[C@@]21C [Compound 3, 17α-Acetoxy-15β-hydroxy-6α-methylpregn-4-ene-3,11,20-trione]	–	265 to 268	41.6 ± 8.14	moderately active
CC(=O)O[C@]1(C(C)=O)CC[C@H]2[C@@H]3C[C@@](C)(O)C4=CC(=O)CC[C@]4(C)[C@H]3C(=O)C[C@@]21C [Compound 4, 17α-Acetoxy-6β-hydroxy-6α-methylpregn-4-ene-3,11,20-trione]	–	232 to 233	40.14 ± 0.12	moderately active
CC(=O)O[C@]1(C(C)=O)C[C@@H](O)[C@H]2[C@@H]3C[C@H](C)C4=CC(=O)CC[C@]4(C)[C@H]3[C@@H](O)C[C@@]21C [Compound 5, 17α-Acetoxy-11β,15β-dihydroxy-6α-methylpregn-4-ene-3,20-dione]	< 0.5	228 to 230	< 0.5	potent inhibitors
CC(=O)O[C@]1(C(C)=O)CC[C@H]2[C@@H]3C[C@@](C)(O)C4=CC(=O)CC[C@]4(C)[C@H]3[C@@H](O)C[C@@]21C [Compound 6, 17α-Acetoxy-11β,6β-dihydroxy-6α-methylpregn-4-ene-3,20-dione]	8.64 ± 0.02	152 to 154	8.64 ± 0.02	strong activity
C[C@]12C=CC(=O)C=C1CC[C@@H]1[C@@H]2[C@@H](O)C[C@@]2(C)[C@H]1CC[C@]2(O)C(=O)CO [prednisolone, reference compound]	9.75 ± 0.03	–	9.75 ± 0.03	–
